In ChEMBL document CHEMBL3039007, “Structure-based identification of OATP1B1/3 inhibitors” (Mol Pharmacol, 2013):

What was measured:
[1] = biological target: T1, Solute carrier organic anion transporter family member 1B1 (Homo sapiens, UniProt Q9Y6L6); settings: chinese hamster, cho, 10 µM
T1 sequence (Q9Y6L6 whole entry): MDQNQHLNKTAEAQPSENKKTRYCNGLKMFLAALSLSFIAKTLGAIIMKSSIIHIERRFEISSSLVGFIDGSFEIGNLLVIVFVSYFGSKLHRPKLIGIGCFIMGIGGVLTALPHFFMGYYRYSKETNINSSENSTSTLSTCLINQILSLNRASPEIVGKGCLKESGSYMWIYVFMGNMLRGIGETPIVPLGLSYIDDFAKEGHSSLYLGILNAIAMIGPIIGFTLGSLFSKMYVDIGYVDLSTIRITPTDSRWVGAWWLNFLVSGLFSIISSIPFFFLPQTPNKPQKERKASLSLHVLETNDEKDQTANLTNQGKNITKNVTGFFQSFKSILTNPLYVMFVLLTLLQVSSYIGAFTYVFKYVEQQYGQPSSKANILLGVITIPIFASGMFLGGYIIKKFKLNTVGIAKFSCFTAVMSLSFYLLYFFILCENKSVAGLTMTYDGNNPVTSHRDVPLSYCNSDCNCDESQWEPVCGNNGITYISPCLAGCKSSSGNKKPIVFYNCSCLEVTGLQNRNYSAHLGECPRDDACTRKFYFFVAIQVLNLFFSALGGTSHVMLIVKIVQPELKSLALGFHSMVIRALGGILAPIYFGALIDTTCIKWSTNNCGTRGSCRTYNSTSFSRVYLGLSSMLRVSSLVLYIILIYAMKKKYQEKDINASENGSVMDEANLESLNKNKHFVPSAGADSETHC

[2] = biological target: T2, Solute carrier organic anion transporter family member 1B3 (Homo sapiens, UniProt Q9NPD5); settings: chinese hamster, cho, 10 µM
T2 sequence (Q9NPD5 whole entry): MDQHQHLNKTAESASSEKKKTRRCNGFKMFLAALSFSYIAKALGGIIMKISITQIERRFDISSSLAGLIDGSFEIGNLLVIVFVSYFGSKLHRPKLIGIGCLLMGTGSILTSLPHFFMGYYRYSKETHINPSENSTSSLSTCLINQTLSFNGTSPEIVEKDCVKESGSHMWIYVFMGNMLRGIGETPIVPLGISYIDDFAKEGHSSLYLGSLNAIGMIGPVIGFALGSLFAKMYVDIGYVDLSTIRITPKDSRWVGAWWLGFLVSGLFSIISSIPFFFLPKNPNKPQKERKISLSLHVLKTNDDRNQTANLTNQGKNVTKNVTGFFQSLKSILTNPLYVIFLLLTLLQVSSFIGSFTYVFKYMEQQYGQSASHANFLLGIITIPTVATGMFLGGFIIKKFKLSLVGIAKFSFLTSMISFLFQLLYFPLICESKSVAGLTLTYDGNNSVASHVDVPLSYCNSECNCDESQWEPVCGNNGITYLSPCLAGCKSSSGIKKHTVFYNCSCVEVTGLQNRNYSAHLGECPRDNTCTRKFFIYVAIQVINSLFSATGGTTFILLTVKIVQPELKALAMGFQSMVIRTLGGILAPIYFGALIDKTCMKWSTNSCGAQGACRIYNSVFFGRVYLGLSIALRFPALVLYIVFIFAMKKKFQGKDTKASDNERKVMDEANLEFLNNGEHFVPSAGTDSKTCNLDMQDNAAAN

Work on `O=C(O[C@@H]1Cc2c(O)cc(O)cc2O[C@@H]1c1cc(O)c(=O)c2c(O)c(O)cc([C@H]3Oc4cc(O)cc(O)c4C[C@H]3O)c2c1)c1cc(O)c(O)c(O)c1` [THEAFLAVIN MONOGALLATES] yielded a residual activity [1] of 89.76% and a residual activity [2] of 103.8%.
`C[C@]12CC[C@@H]3c4ccc(O)cc4CC[C@H]3[C@@H]1CC[C@@H]2O` [ESTRADIOL] showed a residual activity [1] of 125.9% and a residual activity [2] of 131.9%.
In the case of `C[n+]1cc2c3c(ccc2c2ccc4cc5c(cc4c21)OCO5)OCO3.O=S(=O)([O-])O` [SANGUINARINE SULFATE], the residual activity [1] was 134.6% and the residual activity [2] was 92.42%.
`Cc1c(NC(=O)c2cccnc2)c(=O)n(-c2ccccc2)n1C` [NIFENAZONE] gave a residual activity [1] of 96.39% and a residual activity [2] of 120.6%.
For `COc1cc(-c2coc3cc(O[C@@H]4O[C@H](CO)[C@@H](O)[C@H](O)[C@H]4O)c(OC)c(O)c3c2=O)cc(O)c1OC` [IRIDIN], the residual activity [1] was 114.5% and the residual activity [2] was 90.79%.
For `Cc1occc(=O)c1O` [MALTOL], the residual activity [1] was 79.28% and the residual activity [2] was 74.61%.
Compound `COc1cccc(-c2cc(=O)c3cc(OC)ccc3o2)c1` [6,3'-DIMETHOXYFLAVONE] has a residual activity [1] of 131.7% and a residual activity [2] of 120.4%.
`COc1ccc(-c2cc(=O)c3ccccc3o2)cc1OC` [3',4'-DIMETHOXYFLAVONE] gave a residual activity [1] of 187.6% and a residual activity [2] of 129.7%.
`COc1c(CC(=O)c2cc3c(cc2O)OC(C)(C)C(O)C3)ccc2c1C=CC(C)(C)O2` (configuration not stated) [DIHYDROMUNDULETONE] showed a residual activity [1] of 30.26% and a residual activity [2] of 58.7%.
Compound `COC(=O)[C@]1(C)CCC[C@]2(C)c3ccc(C(C)C)cc3C(=O)CC12` (some centres not stated) [7-OXOCALLITRISIC ACID, METHYL ESTER] has a residual activity [1] of 127.8% and a residual activity [2] of 105.6%.
In the case of `C#CCCCCCCCCCCCC(=O)CC(O)COC(C)=O` (configuration not stated) [AVOCADYNONE ACETATE], the residual activity [1] was 124.8% and the residual activity [2] was 100.5%.
`NCC[C@H](O)C(=O)N[C@@H]1C[C@H](N)[C@@H](O[C@H]2O[C@H](CN)[C@@H](O)[C@H](O)[C@H]2O)[C@H](O)[C@H]1O[C@H]1O[C@H](CO)[C@@H](O)[C@H](N)[C@H]1O.O=S(=O)(O)O` gave a residual activity [1] of 72.99% and a residual activity [2] of 92.21%.
Work on `C[C@H](CCC(=O)O)[C@H]1CC[C@H]2[C@@H]3CC[C@@H]4C[C@H](O)CC[C@]4(C)[C@H]3C=C[C@]12C` yielded a residual activity [1] of 23.69% and a residual activity [2] of 112%.
For `CC(C)CCC[C@@H](C)[C@H]1CC[C@H]2[C@@H]3CC[C@@H]4C[C@H](O)CC[C@]4(C)[C@H]3CC[C@]12C` [EPICOPROSTEROL], the residual activity [1] was 90.49% and the residual activity [2] was 97.38%.
In the case of `COc1ccc2c3c([nH]c2c1)C(C)=NCC3` [HARMALINE], the residual activity [1] was 92.56% and the residual activity [2] was 115.9%.
With `Nc1ccc(S(=O)(=O)c2ccc(N)cc2)cc1` [DAPSONE] the residual activity [1] was 78.21% and the residual activity [2] was 84.17%.
`OC[C@H]1O[C@@H](O[C@H]2[C@H](O)[C@@H](O)[C@@H](O)O[C@@H]2CO)[C@H](O)[C@@H](O)[C@@H]1O` [CELLBIOSE] was tested, and the residual activity [1] was 90.6% and the residual activity [2] was 109.6%.
Work on `CO/N=C(\C(=O)N[C@@H]1C(=O)N2C(C(=O)[O-])=C(COC(N)=O)CS[C@H]12)c1ccco1.[Na+]` [CEFUROXIME SODIUM] yielded a residual activity [1] of 64.47% and a residual activity [2] of 83.34%.
`C=C1C(=O)O[C@H]2C[C@@H]1C(OC(C)=O)C/C(C)=C/CC/C(C)=C/CC[C@@]2(C)O` (some centres not stated) [CRASSIN ACETATE] showed a residual activity [1] of 60.87% and a residual activity [2] of 65.53%.
Compound `COc1cc2c(cc1O)[C@@H](Cc1ccc(O)cc1)[N+](C)(C)CC2.[I-]` [MAGNOCURARINE IODIDE] has a residual activity [1] of 91.83% and a residual activity [2] of 96.29%.
Work on `COC(=O)C[C@H]1C(C)(C)[C@H](O)[C@@H]2CC3=C4CC(O)O[C@@H](c5ccoc5)[C@@]4(C)CCC3[C@]1(C)C2=O` (stereo partly drawn) [3,16-DIDEOXYMEXICANOLIDE-3alpha-DIOL] yielded a residual activity [1] of 67.63% and a residual activity [2] of 96.33%.
